This is an account of results in patent US20230406838A1, “MUTANT SELECTIVE EGFR INHIBITORS AND METHODS OF USE THEREOF” (Dana-Farber Cancer Institute, Inc., priority 2020, published 2023).

As a reminder, the IC50 is the point on the concentration scale where inhibition reaches its midpoint. A low value points to higher potency.

In one assay the target is EGFR L858R (Homo sapiens, UniProt P00533, L858R). In words: HTRF-based EGFR biochemical assay, L858R. The following applies: 100 μM ATP, enzyme 0.1 nM. On the procedure: (§1) EGFR biochemical activity measurements were carried out using the homogeneous time-resolved fluorescence (HTRF) assay (Cisbio). Inhibitors and DMSO normalizations were first dispensed to empty black low-volume 384-well plates (Corning) with D300 digital liquid dispenser (HP). All reactions were carried out at room temperature and solutions were added to plates with a Multidrop Combi Reagent Dispenser (ThermoFisher). The reaction mixture (10 μL final volume) contained 1 μM tyrosine kinase peptide-biotin substrate and mutant EGFR in a reaction buffer (50 mM HEPES pH 7.0, 5 mM MgCl2, 1 mM MnCl2, 0.01% BSA, 2 mM TCEP, 0.1 mM NaVO4). […] Enzyme reaction solution (2× concentrations, 5 μL) was added to 384-well plates containing compounds and incubated for 30 mins. Enzyme reactions were initiated with the addition of 5 μL of ATP to a final concentration of 100 μM and reacted for 20 mins.
For orientation: TR-FRET usually uses a lanthanide donor and a delayed reading to cut background.

The target in assay [1] is EGFR L858R/T790M Ba/F3 cells (Homo sapiens, UniProt P00533, T790M/L858R, cells depend on it). In words: Ba/F3 cell proliferation (Cell Titer Glo), L858R/T790M. In kind it is cell-based, murine. The conditions noted are these: Ba/F3, 72 hours, value in parentheses, meaning not explained, read-out: L858R/T790M, inhibition of growth (value in parentheses). On the procedure:
(§2) 100 units/mL streptomycin. The EGFR I941R mutation was introduced via site directed mutagenesis using the Quick Change Site-Directed Mutagenesis kit (Stratagene; La Jolla, CA) according to the manufacturer's instructions. All constructs were confirmed by DNA sequencing. The constructs were shuttled into the retroviral vector JP1540 using the Cre-recombination system (Agilent Technologies, Santa Clara, CA). […] Stable clones were obtained by selection in puromycin (2 μg/ml).
(§3) Growth and inhibition of growth was assessed by the Cell Titer Glo assay (Promega, Madison, WI) and was performed according to the manufacturer's instructions. The Cell Titer Glo assay is a luminescence-based method used to determine the number of viable cells based on quantitation of the ATP present, which is directly proportional to the amount of metabolically active cells present. […] All experimental points were set up in triplicates in 384-well plates and all experiments were repeated at least three times. […] The curves were fitted using a non-linear regression model with a sigmoidal dose response.
For orientation: In ATP-based viability assays light output follows the ATP content of the culture.

Another assay has as its target EGFR L858R Ba/F3 cells (Homo sapiens, UniProt P00533, L858R, cells depend on it). In words: Ba/F3 cell proliferation (Cell Titer Glo), L858R. The class given is cell-based, murine. The conditions noted are these: Ba/F3, 72 hours, value in parentheses, meaning not explained, read-out: L858R, inhibition of growth (value in parentheses). On the procedure: as §2, §3
In another assay the target is EGFR WT (Homo sapiens, UniProt P00533). Kind of assay: HTRF-based EGFR biochemical assay, WT. The following applies: 100 μM ATP, enzyme 5 nM.
EGFR WT, sequence (P00533 25-1210): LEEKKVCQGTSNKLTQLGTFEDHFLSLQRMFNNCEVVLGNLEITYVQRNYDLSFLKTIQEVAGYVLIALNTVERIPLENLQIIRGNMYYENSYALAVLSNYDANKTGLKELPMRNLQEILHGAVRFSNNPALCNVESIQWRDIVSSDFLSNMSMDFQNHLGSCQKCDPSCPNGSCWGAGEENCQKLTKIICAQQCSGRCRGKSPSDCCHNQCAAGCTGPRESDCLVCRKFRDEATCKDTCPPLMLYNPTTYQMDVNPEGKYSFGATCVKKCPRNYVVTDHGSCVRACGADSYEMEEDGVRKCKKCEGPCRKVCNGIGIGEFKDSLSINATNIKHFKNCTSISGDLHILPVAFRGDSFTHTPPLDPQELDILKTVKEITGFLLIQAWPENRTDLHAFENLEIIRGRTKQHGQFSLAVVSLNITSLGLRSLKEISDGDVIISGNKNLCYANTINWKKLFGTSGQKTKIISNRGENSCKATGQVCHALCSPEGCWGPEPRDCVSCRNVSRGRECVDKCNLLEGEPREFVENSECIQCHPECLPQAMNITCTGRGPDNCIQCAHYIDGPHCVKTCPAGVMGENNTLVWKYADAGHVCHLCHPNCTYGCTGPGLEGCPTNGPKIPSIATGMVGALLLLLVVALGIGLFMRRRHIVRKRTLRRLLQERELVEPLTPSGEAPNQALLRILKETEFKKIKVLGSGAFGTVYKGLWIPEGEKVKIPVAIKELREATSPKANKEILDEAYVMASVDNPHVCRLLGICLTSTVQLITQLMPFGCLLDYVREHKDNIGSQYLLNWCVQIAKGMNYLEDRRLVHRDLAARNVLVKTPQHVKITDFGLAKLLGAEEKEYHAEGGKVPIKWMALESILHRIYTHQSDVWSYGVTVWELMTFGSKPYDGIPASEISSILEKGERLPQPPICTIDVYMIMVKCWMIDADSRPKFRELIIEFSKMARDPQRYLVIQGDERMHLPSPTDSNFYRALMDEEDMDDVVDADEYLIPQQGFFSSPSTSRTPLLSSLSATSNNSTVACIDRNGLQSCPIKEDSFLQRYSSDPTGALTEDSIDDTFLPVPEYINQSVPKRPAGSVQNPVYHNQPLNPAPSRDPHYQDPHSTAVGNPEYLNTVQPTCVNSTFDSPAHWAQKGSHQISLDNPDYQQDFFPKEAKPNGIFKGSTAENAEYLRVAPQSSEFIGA
In a further assay the target is EGFR L858R/T790M (Homo sapiens, UniProt P00533, L858R/T790M). Kind of assay: HTRF-based EGFR biochemical assay, L858R/T790M. The conditions noted are these: 100 μM ATP, enzyme 0.02 nM. Here is the method:
as §1

In assay [2] the target is EGFR L858R/T790M/C797S Ba/F3 cells (Homo sapiens, UniProt P00533, T790M/C797S/L858R, cells depend on it). In words: Ba/F3 cell proliferation (Cell Titer Glo), L858R/T790M/C797S. The class given is cell-based, murine. The conditions noted are these: Ba/F3, 72 hours, value in parentheses, meaning not explained, read-out: L858R/T790M/C797S, inhibition of growth (value in parentheses). Here is the method:
as §2, §3

In the next assay the target is WT EGFR Ba/F3 cells (Homo sapiens, UniProt P00533, cells depend on it, form not given). Kind of assay: Ba/F3 cell proliferation (Cell Titer Glo), WT. The class given is cell-based, murine. The following applies: Ba/F3, 72 hours, value in parentheses, meaning not explained, read-out: WT, inhibition of growth (value in parentheses). On the procedure:
as §2, §3

The next assay addresses EGFR L858R/T790M/C797S (Homo sapiens, UniProt P00533, C797S/L858R/T790M). In words: HTRF-based EGFR biochemical assay, L858R/T790M/C797S. The following applies: 100 μM ATP, enzyme 0.02 nM. On the procedure: as §1

Some results are limits rather than exact numbers.

EGFR L858R/T790M/C797S Ba/F3 cells, sequence (P00533 whole entry T790M/C797S/L858R): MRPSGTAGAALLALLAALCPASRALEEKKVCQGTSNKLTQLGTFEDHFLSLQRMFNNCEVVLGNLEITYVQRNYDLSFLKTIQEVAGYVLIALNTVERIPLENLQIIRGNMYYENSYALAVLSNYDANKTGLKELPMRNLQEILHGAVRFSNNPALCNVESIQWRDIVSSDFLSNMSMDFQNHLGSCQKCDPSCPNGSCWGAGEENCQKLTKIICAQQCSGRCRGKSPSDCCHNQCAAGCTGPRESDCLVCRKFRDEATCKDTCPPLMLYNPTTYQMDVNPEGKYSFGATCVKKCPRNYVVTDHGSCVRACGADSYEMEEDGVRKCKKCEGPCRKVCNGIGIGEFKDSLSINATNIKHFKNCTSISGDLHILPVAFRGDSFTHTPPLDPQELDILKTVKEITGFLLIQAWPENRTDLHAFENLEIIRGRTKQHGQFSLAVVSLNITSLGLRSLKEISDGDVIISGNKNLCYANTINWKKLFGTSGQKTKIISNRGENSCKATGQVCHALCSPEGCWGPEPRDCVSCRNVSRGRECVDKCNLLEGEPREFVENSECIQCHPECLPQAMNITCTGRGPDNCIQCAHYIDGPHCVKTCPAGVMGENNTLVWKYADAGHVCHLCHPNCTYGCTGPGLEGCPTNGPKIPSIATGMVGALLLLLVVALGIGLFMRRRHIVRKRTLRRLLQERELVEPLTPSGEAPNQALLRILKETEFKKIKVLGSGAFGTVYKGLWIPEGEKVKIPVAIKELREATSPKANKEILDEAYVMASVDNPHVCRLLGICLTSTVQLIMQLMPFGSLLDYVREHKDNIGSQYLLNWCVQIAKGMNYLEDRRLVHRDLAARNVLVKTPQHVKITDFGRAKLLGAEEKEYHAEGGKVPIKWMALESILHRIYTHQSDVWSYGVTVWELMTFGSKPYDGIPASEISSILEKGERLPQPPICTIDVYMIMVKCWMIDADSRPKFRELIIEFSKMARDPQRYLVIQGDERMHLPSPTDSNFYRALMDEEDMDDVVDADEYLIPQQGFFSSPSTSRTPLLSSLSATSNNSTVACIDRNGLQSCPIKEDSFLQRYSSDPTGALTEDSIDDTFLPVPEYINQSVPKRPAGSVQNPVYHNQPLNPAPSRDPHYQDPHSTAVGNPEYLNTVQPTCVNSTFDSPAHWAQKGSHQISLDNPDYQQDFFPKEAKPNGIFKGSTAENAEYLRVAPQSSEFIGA
EGFR L858R/T790M/C797S, sequence (P00533 25-1210 T790M/C797S/L858R): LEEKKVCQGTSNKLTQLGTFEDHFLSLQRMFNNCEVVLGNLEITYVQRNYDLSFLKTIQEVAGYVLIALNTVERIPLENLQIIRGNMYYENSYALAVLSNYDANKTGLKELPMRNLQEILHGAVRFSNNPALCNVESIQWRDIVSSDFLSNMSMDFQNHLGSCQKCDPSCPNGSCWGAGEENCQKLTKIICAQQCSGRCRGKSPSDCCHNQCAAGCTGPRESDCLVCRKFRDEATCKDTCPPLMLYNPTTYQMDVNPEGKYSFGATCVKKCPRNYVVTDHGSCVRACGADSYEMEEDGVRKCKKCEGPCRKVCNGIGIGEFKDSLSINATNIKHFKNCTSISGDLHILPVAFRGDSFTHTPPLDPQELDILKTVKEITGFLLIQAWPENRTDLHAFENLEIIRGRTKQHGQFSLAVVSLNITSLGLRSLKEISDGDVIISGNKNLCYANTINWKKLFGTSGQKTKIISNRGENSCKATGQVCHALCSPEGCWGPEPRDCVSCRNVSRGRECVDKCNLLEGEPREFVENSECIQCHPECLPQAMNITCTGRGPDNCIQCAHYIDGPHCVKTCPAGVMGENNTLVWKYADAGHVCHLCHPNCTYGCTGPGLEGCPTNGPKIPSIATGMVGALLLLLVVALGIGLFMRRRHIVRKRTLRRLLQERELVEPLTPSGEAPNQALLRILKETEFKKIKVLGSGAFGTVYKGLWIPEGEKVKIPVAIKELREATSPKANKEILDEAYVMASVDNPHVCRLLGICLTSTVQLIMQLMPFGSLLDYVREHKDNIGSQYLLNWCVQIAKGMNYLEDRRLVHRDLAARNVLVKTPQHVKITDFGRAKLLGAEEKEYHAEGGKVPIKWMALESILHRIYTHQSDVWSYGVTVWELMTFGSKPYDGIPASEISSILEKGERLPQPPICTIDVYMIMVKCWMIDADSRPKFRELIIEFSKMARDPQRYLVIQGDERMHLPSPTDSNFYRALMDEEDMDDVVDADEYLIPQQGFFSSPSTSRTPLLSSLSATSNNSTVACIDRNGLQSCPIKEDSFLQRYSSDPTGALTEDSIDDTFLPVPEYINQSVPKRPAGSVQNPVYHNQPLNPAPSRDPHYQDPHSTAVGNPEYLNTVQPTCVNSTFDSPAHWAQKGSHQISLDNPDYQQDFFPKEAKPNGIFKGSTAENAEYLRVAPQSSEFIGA
EGFR L858R/T790M, sequence (P00533 25-1210 T790M/L858R): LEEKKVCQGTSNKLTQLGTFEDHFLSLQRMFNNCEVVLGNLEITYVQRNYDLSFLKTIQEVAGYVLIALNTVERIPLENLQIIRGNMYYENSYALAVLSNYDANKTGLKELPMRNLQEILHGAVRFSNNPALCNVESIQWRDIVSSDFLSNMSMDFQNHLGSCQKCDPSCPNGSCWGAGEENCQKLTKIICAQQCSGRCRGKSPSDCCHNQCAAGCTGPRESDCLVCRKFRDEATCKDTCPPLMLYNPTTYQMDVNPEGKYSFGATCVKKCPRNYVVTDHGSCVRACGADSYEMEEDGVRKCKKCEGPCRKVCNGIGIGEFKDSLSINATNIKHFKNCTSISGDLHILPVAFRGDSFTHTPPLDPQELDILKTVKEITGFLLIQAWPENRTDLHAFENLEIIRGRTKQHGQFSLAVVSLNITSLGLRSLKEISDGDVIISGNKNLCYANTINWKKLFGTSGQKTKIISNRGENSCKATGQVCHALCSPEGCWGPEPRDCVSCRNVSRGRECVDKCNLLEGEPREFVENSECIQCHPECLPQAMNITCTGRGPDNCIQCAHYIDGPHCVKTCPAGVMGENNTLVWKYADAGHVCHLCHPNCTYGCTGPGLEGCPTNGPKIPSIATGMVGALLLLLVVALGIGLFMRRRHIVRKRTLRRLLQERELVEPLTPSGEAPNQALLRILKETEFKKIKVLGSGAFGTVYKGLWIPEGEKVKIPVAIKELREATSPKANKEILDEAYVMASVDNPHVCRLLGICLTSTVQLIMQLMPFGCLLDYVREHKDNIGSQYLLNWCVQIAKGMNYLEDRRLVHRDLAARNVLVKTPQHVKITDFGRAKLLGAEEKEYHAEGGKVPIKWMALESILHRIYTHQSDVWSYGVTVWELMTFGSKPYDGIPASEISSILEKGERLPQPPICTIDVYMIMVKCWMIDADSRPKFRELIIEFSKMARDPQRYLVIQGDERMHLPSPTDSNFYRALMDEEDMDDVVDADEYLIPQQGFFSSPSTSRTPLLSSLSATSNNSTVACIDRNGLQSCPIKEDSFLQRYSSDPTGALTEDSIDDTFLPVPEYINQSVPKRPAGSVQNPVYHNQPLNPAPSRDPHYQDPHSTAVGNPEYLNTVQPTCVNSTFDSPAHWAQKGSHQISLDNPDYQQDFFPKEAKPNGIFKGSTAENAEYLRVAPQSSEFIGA

As to `CSc1nc(-c2cccc(NC(=O)c3ccccc3CN3Cc4ccccc4C3=O)c2)c(-c2ccnc(NC(C)=O)c2)[nH]1` [Compound 047, N-(3-(5-(2-acetamidopyridin-4-yl)-2-(methylthio)-1H-imidazol-4-yl)phenyl)-2-((1-oxoisoindolin-2-yl)methyl)benzamide], the IC50 is 96 nM on EGFR L858R, more than 100000 nM at EGFR WT, 759 nM against EGFR L858R/T790M and 610 nM against EGFR L858R/T790M/C797S. The EC50 is more than 10000 nM in assay [1], more than 10000 nM on EGFR L858R Ba/F3 cells, more than 10000 nM in assay [2] and more than 4300 nM at WT EGFR Ba/F3 cells.

For the molecule `C=CC(=O)Nc1ccc(OC)c(Nc2cc(-c3[nH]c(SC)nc3-c3cccc(NC(=O)c4ccccc4CN4Cc5ccccc5C4=O)c3)ccn2)c1` [Compound 064, N-(3-(5-(2-((5-acrylamido-2-methoxyphenyl)amino)pyridin-4-yl)-2-(methylthio)-1H-imidazol-4-yl)phenyl)-2-((1-oxoisoindolin-2-yl)methyl)benzamide], the IC50 at EGFR L858R stood at 11 nM; on EGFR WT, 701 nM; against EGFR L858R/T790M it was 8 nM; against EGFR L858R/T790M/C797S it was 206 nM. The EC50 in assay [1] was 2500 nM; on EGFR L858R Ba/F3 cells it was 500 nM; in assay [2], more than 10000 nM; on WT EGFR Ba/F3 cells it was more than 4000 nM.
